Data published in patent US5030634A (priority 1990, dated 1991).

Legend:
[1] = system: rheumatoid arthritis patients; test: Double-blind clinical trial of 10-deazaaminopterin versus methotrexate in rheumatoid arthritis: toxicity evaluation; format: in vivo, human; settings: for Toxicity: Dizziness / Toxicity: Gastrointestinal / Toxicity: Leukopenia / Toxicity: Rash: n = 7 per arm, 18 week trial
Experimental: The double-blind clinical trail of 10-deazaaminopterin versus methotrexate in rheumatoid arthritis was conducted at Universidad Peruana Cayetano Heredia, Lima, Peru. In order to detect 30% differences in either direction for both -efficacy and toxicity a sample size of 20 was used. The trial was conducted according to the following protocol.
The null hypotheses to be investigated included the following
Randomization was performed before the study began; an equal number of patients in each arm of the protocol was secured. Codes were made available to the investigator in sealed envelopes at the beginning of the trial; they were allowed to be opened by the investigator, only if felt to be mandatory for patient management. Patients received a three week supply of either 10-deazaaminopterin or methotrexate. […] Initially the patients received three capsules/week (or 7.5 mg). The capsules were taken at 12 hour intervals over a 24 hour period (8 a.m.-8 p.m. -8 a.m. the following day).
A data base which included a complete history, physical and laboratory exams was completed (Visit 0 or eligibility visit). […] If the patient was felt to be eligible, he/she was entered into the trial the following week (Visit 1) at which time disease activity was assessed and a functional test completed. Patients returned to the clinic every three weeks at which time joint counts were performed, side effects monitored and laboratory studies obtained. An assessment of response was done at week nine (Visit 3). At week 18 (Visit 6) or before (if the patient decides to be removed from the trial) the patient would have a complete exit evaluation, similar to the one performed on visit 1.
Joint counts for pain/tenderness in 60 diarthrodial joints and for swelling in 58 diarthrodial joints Laboratory tests included: CBC, with platelets and differential, Creatinine, SGOT and Alkaline phosphatase. […] 5 ml of sera were secured at entry and at study completion and stored at -20° C. for further studies.
Adverse effects were determined by interviewing the patient; each new symptom developing since the previous visit were recorded as to the date or onset, date of cessation, and whether it was felt to be related or unrelated to the study drug(s).
Minor itching and skin rashes could be handled with antihistaminics or topical steroids; a drop in the WBC ([…]) or in the platelets (<100,000/mm^3), or an increase in the liver enzymes ×2 normal), or an increase in the baseline creatinine (×2 normal) would prompt holding the drug for one week; if the values improved, patients may be restarted on the drug; if no improvement occurs in 3 weeks, the patient should be withdrawn. […] If no improvement occurs in 3 weeks, the patient should be withdrawn from the trial. If a patient develops a serious intercurrent infectious process, or requires elective or emergency surgery during the study period, the patient should be withdrawn from the trial.

[2] = mammalian tissues; cited from earlier work
[3] = system: dihydrofolate reductase; settings: 10-deazaaminopterin compared with methotrexate; cited from earlier work
[4] = system: cancer patients; settings: anticancer clinical trials, Cancer Treatment Reports 71:95, 1987; cited from earlier work
[5] = system: patients receiving methotrexate; settings: cited from earlier work

| Structure (SMILES) | Toxicity in humans versus methotrexate (in words) ([1]; clinical trials (not further specified), compared with methotrexate) | Frequency of toxicity (in words) ([1]; human, in vivo) | Toxicity: Dizziness [1] | Toxicity: Gastrointestinal [1] | Toxicity: Leukopenia [1] | Toxicity: Rash [1] | Metabolism to poly-gamma-glutamates [2] | Inhibition of dihydrofolate reductase (in words) [3] | Bone marrow depression [4] | Nausea and vomiting [4] | Patients who experienced an adverse drug reaction during treatment ([5]; human, in vivo) | Patients with toxic manifestations (nausea, stomatitis, elevated liver function tests, cytopenias, pulmonary toxicity) ([5]; patients receiving methotrexate) | Toxicity of methotrexate (in words) ([5]; use in rheumatoid arthritis) |
| --- | --- | --- | --- | --- | --- | --- | --- | --- | --- | --- | --- | --- | --- |
| Nc1nc(N)c2nc(CCc3ccc(C(=O)NC(CCC(=O)O)C(=O)O)cc3)cnc2n1 (stereo not shown) [10-deazaaminopterin] | remarkably less toxic to humans | low frequency of toxicity | 0 | 2 | 0 | 1 | also metabolized to its poly-gamma-glutamates in mammalian tissues | inhibit this enzyme to approximately the same magnitude | minimal | mild | – | – | – |
| CN(Cc1cnc2nc(N)nc(N)c2n1)c1ccc(C(=O)N[C@@H](CCC(=O)O)C(=O)O)cc1 [methotrexate, reference compound] | – | – | 1 | 2 | 1 | 0 | metabolism of methotrexate to its poly-gamma-glutamates | inhibit this enzyme to approximately the same magnitude | – | – | 93 % of patients | 30-60 % of patients | very toxic drug |
